# Measured values as given in patent publication US8106092B2, “Treatment of solid cancers” (priority 2004, dated 2012).
# Columns and labels:
# B16-OVA tumors = assay: SIINFEKL-specific CD8+ T-cell induction after topical PEP005 treatment of B16-OVA (IFNγ ELISPOT); assay type: in vivo, C57/BL6 mice
# Description: B16 and B16 cells stably expressing ovalbumin (B16-OVA)were grown s.c. in C57BL/6 mice as described previously (Ogbourne et al, Cancer Res 64:2833-2839, 2004; Anraku et al, J Virol 76:3791-3799, 2002). Lung metastases were established as described (Zeh et al, J Immunol 162:989-994, 1999). Lewis lung-OVA (Nelson et al, J Immunol 166:5557-5566, 2001) were grown s.c. in C57BL/6 as described (Lenarczyk et al, Vaccine 22:963-974, 2004).
# Tumors were treated by topical or intratumoral (i.t.) injection (using a 26 gauge needle) of (i) PEP0005 dissolved in acetone and then RPMI 1640 (final concentration of acetone 4%), or (ii) PEP005 formulated in PEG400.
# (§1) Mouse splenocytes were analyzed by ex vivo IFNγ ELISPOT essentially as described previously (Le et al, Vaccine 19:4669-4675, 2001), but using MultiScreen-IP plates (Millipore) and 25 IU/ml of recombinant human IL-2 (Cetus).
# Following three topical applications of PEP005 to established s.c. B16-OVA tumors on C57/BL6 mice, the number of SIINFEKL [SEQ ID NO:2]-specific CD8^+ T-cell induced were measured using IFNγ ELISPOT. As controls, the SIINFEKL [SEQ ID NO:2] specific CM^+ T-cell induced following (i) PEP005 treatment without tumor, (ii) mock treatment of B16 tumors and (iii) naïve mice (no PEP005 or tumor), were also tested.
# B16 lung metastases = assay: B16 lung metastasis model; assay type: in vivo, C57BL/6 mice
# Description: FIG. 5 is a graphical representation showing the treatment of s.c. B16 tumors with PEP005 reduced growth B16 lung metastases. C57BL/6 mice (n=7) were injected with 10^6 B16 cells s.c. and 5×10^4 B16 cell i.v. on d−2. On dO the s.c. tumors had reached an average 21.8 mm^2+SE 2.4 and were cured with 25 μg of i.t. PEP005 formulated with PEG400. On d18 the mice were euthanazed and lung weights determined (PEP005). Control mice received only i.v. B16 and naïve mice received no tumors (n=6 per group).
# The activity of PEP005-mediated cure of primary tumors was assessed in a more robust model using B16 tumors rather than B16-OVA tumors and where primary tumors and lung metastases were both established prior to PEP005 treatment. When the primary tumors had reached 21.8+SE 2.4 they were cured with i.t. PEP005 injection. […] After subtracting the weight of tumor free lungs (FIG. 5A, naïve, dotted line), this represented a reduction in lung tumor burden of over 50%.
# B16-OVA lung metastases = assay: B16-OVA melanoma lung metastasis model; assay type: in vivo, C57BL/6 mice
# Description: FIGS. 4A to D are graphical representations showing protection against secondary tumors following cure of primary tumors with PEP005. (A) C57BL/6 mice received 5×10^5 Lewis lung-OVA s.c. on the back on day less 7 (d−7). When these primary tumors had reached an average 13.6 mm^2±1.8 SE (range 10-25 mm^2) on d0 they were treated once with 16 μg of PEP005 delivered i.t. In eight mice these primary tumors were cured, and these mice received 5×10^5 Lewis lung-OVA s.c. on d4 on the opposite flank from the primary tumors. The emergence of these secondary tumors was monitored over time (PEP005 cured). In a parallel group of animals (n=5) PEP005 treatment regressed the primary tumors, but after 11-13 days the primary tumors re-emerged. These animals also received secondary tumors as above and their emergence was again monitored over time (PEP005 regressed). Two control groups were included. One group (n=6) received no primary tumors, but was treated s.c. with PEP005 and received secondary tumors on the opposite flank (white triangles, PEP005 s.c.). The second control group (n=8) also received no primary tumors, was not treated with PEP005, and received secondary tumors as above (Controls). […] Secondary B16-OVA (10^5) were injected i.v. on d6 and animals were sacrificed on d27 and lung metastases counted. […]
# [1] = tested on: SIINFEKL [SEQ ID NO:2]-specific CD8^+ T-cells; assay: SIINFEKL-specific CD8+ T-cells by IFNγ ELISPOT after i.t. PEP005 treatment of Lewis lung-OVA; assay type: in vivo, C57BL/6 mice
# Description: FIGS. 4A to D are graphical representations showing protection against secondary tumors following cure of primary tumors with PEP005. (A) C57BL/6 mice received 5×10^5 Lewis lung-OVA s.c. on the back on day less 7 (d−7). When these primary tumors had reached an average 13.6 mm^2±1.8 SE (range 10-25 mm^2) on d0 they were treated once with 16 μg of PEP005 delivered i.t. In eight mice these primary tumors were cured, and these mice received 5×10^5 Lewis lung-OVA s.c. on d4 on the opposite flank from the primary tumors. The emergence of these secondary tumors was monitored over time (PEP005 cured). In a parallel group of animals (n=5) PEP005 treatment regressed the primary tumors, but after 11-13 days the primary tumors re-emerged. These animals also received secondary tumors as above and their emergence was again monitored over time (PEP005 regressed). Two control groups were included. One group (n=6) received no primary tumors, but was treated s.c. with PEP005 and received secondary tumors on the opposite flank (white triangles, PEP005 s.c.). […] Secondary B16-OVA (10^5) were injected i.v. on d6 and animals were sacrificed on d27 and lung metastases counted.
# as §1
compound,measurement,setting,value
"C/C=C(/C)C(=O)O[C@H]1C(C)=C[C@]23C(=O)[C@@H](C=C(CO)[C@@H](O)[C@]12O)[C@H]1[C@@H](C[C@H]3C)C1(C)C [PEP005, ingenol-3-angelate]",tumor bearing animals cured,B16-OVA tumors; B16-OVA tumors treated topically with PEP005,4/7
same,SIINFEKL-specific CD8+ T-cell responses (IFNγ ELISPOT),"B16-OVA tumors; mice receiving PEP005 without tumor, limit of detection five spots/10^6 splenocytes",no significant responses
same,SIINFEKL-specific CD8+ T-cell responses (IFNγ ELISPOT),"B16-OVA tumors; mice with B16-OVA tumors treated with three topical applications of PEP005 (cured mice, n=4), p=0.058 vs combined negative controls",some weak variable responses
same,reduction in lung tumor burden,"B16 lung metastases; after subtracting the weight of tumor free lungs, d18",over 50%
same,lung weights on d18 compared to controls,"B16 lung metastases; s.c. B16 primaries cured with i.t. PEP005, lung metastases established before treatment, p=0.023",lighter
same,growth of lung metastases,B16-OVA lung metastases; partial regression of the primary tumors by PEP005,failed to inhibit significantly
same,number of lung metastases,"B16-OVA lung metastases; s.c. primary B16-OVA cured by PEP005, B16-OVA i.v. six days after treatment, Wilcoxon p=0.046",reduce significantly
same,number of SIINFEKL-specific CD8+ T-cells vs untreated control animals,[1]; PEP005 injected s.c. rather than into a tumor,failed to increase
same,SIINFEKL-specific CD8+ T-cells vs control animals,"[1]; primary tumors cured by PEP005, p=0.008 unpaired t-Test",significantly more
